In PubChem BioAssay (NCI):
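96-well plates; 48 h exposure; 5 concentrations. Endpoints by linear interpolation between flanking doses. Not reached: highest tested concentration assigned. At the TGI there is no net growth.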

Columns and labels:
Assay in all cases: DTP human tumour cell line panel, 48 h
[1] = test system: CAKI-1 renal
[2] = test system: SK-MEL-2 melanoma
[3] = test system: SK-MEL-28 melanoma
[4] = test system: ACHN renal
[5] = test system: OVCAR-4 ovarian
[6] = test system: UACC-62 melanoma
[7] = test system: SK-MEL-5 melanoma
[8] = test system: DLD-1 colon
[9] = test system: OVCAR-3 ovarian
[10] = test system: KM20L2 colon
[11] = test system: SN12C renal
[12] = test system: DMS 114 small cell lung
[13] = test system: HOP-62 NSCLC
[14] = test system: 786-0 renal
[15] = test system: IGROV1 ovarian
[16] = test system: HCT-15 colon
[17] = test system: TK-10 renal
[18] = test system: DMS 273 small cell lung
[19] = test system: RXF 393 renal
[20] = test system: COLO 205 colon
[21] = test system: MALME-3M melanoma
[22] = test system: SNB-19 CNS
[23] = test system: SW-620 colon
[24] = test system: OVCAR-8 ovarian
[25] = test system: OVCAR-5 ovarian
[26] = test system: A498 renal
[27] = test system: SK-OV-3 ovarian
[28] = test system: HCC-2998 colon
[29] = test system: HOP-92 NSCLC
[30] = test system: LXFL 529 NSCLC
[31] = test system: SNB-78 CNS
[32] = test system: LOX IMVI melanoma
[33] = test system: UACC-257 melanoma
[34] = test system: SF-268 CNS
[35] = test system: SNB-75 CNS
[36] = test system: KM12 colon
[37] = test system: SF-539 CNS
[38] = test system: HCT-116 colon
[39] = test system: UO-31 renal
[40] = test system: A549 NSCLC
[41] = test system: SF-295 CNS
[42] = test system: NCI-H226 lung
[43] = test system: NCI-H460 lung
[44] = test system: U251 CNS
[45] = test system: K-562 leukemia
[46] = test system: EKVX NSCLC
[47] = test system: HT29 colon
[48] = test system: HOP-18 NSCLC
[49] = test system: NCI-H23 lung
[50] = test system: M14 melanoma
[51] = test system: NCI-H522 lung
[52] = test system: CCRF-CEM leukemia
[53] = test system: XF 498 CNS
[54] = test system: HL-60(TB) leukemia
[55] = test system: M19-MEL melanoma
[56] = test system: MOLT-4 leukemia
[57] = test system: RPMI-8226 leukemia

Measured: TGI

CC1CCC2[C@@H](C)COC3O[C@]4(C)CCC1C32OO4 (stereo partly specified)
> 100 µM: [1] | [2] | [3] | [4] | [5] | [6] | [7] | [8] | [9] | [10] | [11] | [12] | [13] | [14] | [15] | [16] | [17] | [18] | [19] | [20] | [21] | [22] | [23] | [24] | [25] | [26] | [27] | [28] | [29] | [30] | [31] | [32] | [33] | [34] | [35] | [36] | [37] | [38] | [39] | [40] | [41] | [42] | [43] | [44] | [45] | [46] | [47] | [48] | [49] | [50] | [51] | [52]

COC(=O)C(C(=O)C(=O)Nc1ccc(N)cc1[N+](=O)[O-])c1nc2ccc(Cl)cc2[nH]c1=O (stereo unspecified)
> 100 µM: [1] | [2] | [3] | [4] | [5] | [53] | [54] | [6] | [7] | [8] | [9] | [55] | [10] | [11] | [12] | [13] | [14] | [56] | [15] | [57] | [16] | [17] | [18] | [19] | [20] | [21] | [22] | [23] | [24] | [25] | [26] | [27] | [28] | [29] | [31] | [32] | [33] | [34] | [35] | [36] | [37] | [38] | [39] | [40] | [41] | [42] | [43] | [45] | [46] | [47] | [48] | [49] | [50] | [52]
